# Measurements reported in patent US20110244047A1, “FILM-FORM PREPARATION AND METHOD FOR PRODUCING THE SAME” (NITTO DENKO CORPORATION, priority 2010, published 2011).
# Test: Particle size of the drug particles used (electron microscope, 200 particles)
# Format: physicochemical
# Settings: drug particles before incorporation
# Experimental: The various drug particles used in the Examples and Comparative Examples were obtained passing the powder through a 32 μm, 50 μm or 90 μm sieve after pulverization, or obtained fine particles by a jet mill (product of Hosokawa Micron Group, spiral jet mill model 50AS) or a spray dryer (product of Büchi Labortechnik AG, mini spray dryer model B-290) after pulverization. The particle sizes of these drug particles was measured by electron microscope (product of Hitachi High-Technologies Corp., model TM-1000) and the 50 vol % average particle size was calculated from the measurement results of 200 particles. This value was used as the particle size index of the particles.
row,Compound,50 vol % average particle size
1,"COc1ccc2c(c1)c(CC(=O)O)c(C)n2C(=O)c1ccc(Cl)cc1 [Indomethacin particles, Indomethacin]",1.8 um
2,"COc1ccc2[nH]cc(CCNC(C)=O)c2c1 [Melatonin particles A, Melatonin]",2.1 um
3,"CC(C(=O)O)c1cccc(C(=O)c2ccccc2)c1 (centres unmarked) [Ketoprofen particles, Ketoprofen]",1.7 um

# Results, then the compound that gave them:
row,50 vol % average particle size,Compound
1,180.5 um,"COc1ccc2[nH]cc(CCNC(C)=O)c2c1 [Melatonin particles C, Melatonin]"
2,28.4 um,"COc1ccc2[nH]cc(CCNC(C)=O)c2c1 [Melatonin particles B, Melatonin]"
